Structures can show the parent of a compound that is named as a salt.
Tests used:
[1] = test system: MES-induced seizures; test: Mouse Maximum Electroshock Assay (MES); assay type: in vivo; conditions: male CF-1 mice, fewer than 4 animals tested, given as N/F
From the text: Mouse Maximum Electroshock Assay (MES)
Mouse Maximum Electroshock Assay (MES) is a model for generalized tonic-clonic seizures and provides an indication of a compound's ability to prevent seizure spread when all neuronal circuits in the brain are maximally active. These seizures are highly reproducible and are electrophysiologically consistent with human seizures. For all MES tests, 60 Hz of alternating current (50 mA in mice and 150 mA in rats) was delivered for 0.2 sec by corneal electrodes which had been primed with an electrolyte solution containing an anesthetic agent (0.5% tetracaine HCl). An animal was considered “protected” from MES-induced seizures upon abolition of the hindlimb tonic extensor component of the seizure. Initial screen for anticonvulsant activity in the MES was performed with N=4 male CF-1 mice/dose/time point. The default doses and time-points were 3 and 30 mg/kg at 0.25 and 0.5 hr following administration. Quantification of the ED50 was conducted at the time of peak effect (TPE). To determine the TPE, groups of N=4 mice were treated with the investigational compound at 0.25, 0.5, 1.0, 2.0 and 4.0 hrs prior to MES testing, or based on time-points from prior studies. […] Quantitation of the ED50 was conducted the same as described for mice above.

[2] = test system: behaviors of compound-treated mice; test: Neuropharmacological Assay (SmartCube); assay type: in vivo; conditions: for minimal effective dose: Mus musculus, ip, 0.25 h, dose having 50% or more total activity in SmartCube, i.p., read-out: MED (minimal effective dose); for AD: ADHD (probability that activity matches class) / AG: analgesic (probability that activity matches class) / AX: anxiolytic (probability that activity matches class) / CE: cognitive enhancer (probability that activity matches class) / DP: anti-depressant (probability that activity matches class) / MS: mood stabilizer (probability that activity matches class) / PS: anti-psychotic (probability that activity matches class) / SD: sedative hypnotic (probability that activity matches class) / UN: uncharacterized CNS activity (probability that activity matches class): i.p. 15 min before behavioral test, most efficacious dose(s) of 3 doses
In short: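 Mice dosed i.p. 15 min before testing, with compound in N-methyl-2-pyrrolidone/PEG/propylene glycol, were video-recorded and algorithmically compared with reference-drug behavioral signatures. This gave class-match probabilities (antidepressant, anxiolytic, etc.) at the most efficacious of 3 doses. MED was defined as the dose with ≥50% total activity, usually tested across 0.3–30 mpk.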

CNC[C@@H]1OCCc2c(-c3cnco3)cccc21 (single isomer, unassigned) [Compound 96, hydrochloride salt]
Seizure protection at 30 mg/kg (animals protected/animals tested) [1]: 2/2 animals tested
minimal effective dose [2]: ≤ 3 mg/kg
AD: ADHD (probability that activity matches class) [2]: ++ (5% ≤ ++ <25%)
AG: analgesic (probability that activity matches class) [2]: + (LOQ ≤ + <5%)
AX: anxiolytic (probability that activity matches class) [2]: +++ (25% ≤ +++ <50%)
CE: cognitive enhancer (probability that activity matches class) [2]: + (LOQ ≤ + <5%)
DP: anti-depressant (probability that activity matches class) [2]: ++++ (50% ≤ ++++)
MS: mood stabilizer (probability that activity matches class) [2]: + (LOQ ≤ + <5%)
PS: anti-psychotic (probability that activity matches class) [2]: + (LOQ ≤ + <5%)
SD: sedative hypnotic (probability that activity matches class) [2]: ++++ (50% ≤ ++++)
UN: uncharacterized CNS activity (probability that activity matches class) [2]: + (LOQ ≤ + <5%)

CNC[C@H]1OCCc2c(-c3cnccn3)cccc21 (single isomer, unassigned) [Compound 81]
Seizure protection at 30 mg/kg (animals protected/animals tested) [1]: 3/3 animals tested
minimal effective dose [2]: ≤ 3 mg/kg
AD: ADHD (probability that activity matches class) [2]: ++ (5% ≤ ++ <25%)
AG: analgesic (probability that activity matches class) [2]: + (LOQ ≤ + <5%)
AX: anxiolytic (probability that activity matches class) [2]: ++ (5% ≤ ++ <25%)
CE: cognitive enhancer (probability that activity matches class) [2]: + (LOQ ≤ + <5%)
DP: anti-depressant (probability that activity matches class) [2]: ++++ (50% ≤ ++++)
MS: mood stabilizer (probability that activity matches class) [2]: + (LOQ ≤ + <5%)
PS: anti-psychotic (probability that activity matches class) [2]: + (LOQ ≤ + <5%)
SD: sedative hypnotic (probability that activity matches class) [2]: + (LOQ ≤ + <5%)
UN: uncharacterized CNS activity (probability that activity matches class) [2]: +++ (25% ≤ +++ <50%)
